Measurements published in patent US12495798B2, “Nicotinamide compound and herbicidal composition comprising compound” (KOREA RESEARCH INSTITUTE OF CHEMICAL TECHNOLOGY, priority 2019, dated 2025).

What was measured:
Format in all cases: in vivo
[1] = tested on: cotton; assay: Phytotoxicity test for field crops (soil treatment test); design: key: 0 (no harm); 9 (complete withered)
Summary of the method: (§1)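 Applied as a soil treatment one day after sowing, at final rates of 19˜300 g a.i./ha. Damage is graded visually (0 = no harm, 9 = complete withered) compared with untreated control, 10 and 20 days after treatment.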

[2] = tested on: soybean; assay: as above; design: key: 0 (no harm); 9 (complete withered)
Summary of the method: as §1

[3] = tested on: wheat; assay: as above; design: key: 0 (no harm); 9 (complete withered)
Summary of the method: as §1

[4] = tested on: corn; assay: as above; design: key: 0 (no harm); 9 (complete withered)
Summary of the method: as §1

[5] = tested on: rice; assay: as above; design: key: 0 (no harm); 9 (complete withered)
Summary of the method: as §1

[6] = tested on: fall panicum; assay: Herbicidal activity test against upland field weeds (soil treatment test); design: key to Soil treatment herbicidal activity, Fall panicum: 0 (no control); 100 (complete control); settings: 50 g ai/ha, scale 0 (no control) to 100 (complete control); for pest or weed control at 50 g/ha: Panicum dichotomiflorum
Summary of the method: (§2)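 Pre-emergence soil surface spray, day after sowing, into sandy loam pots with fertilizer; compounds at 50 or 75 g a.i./ha in 50% acetone, 0.1% Tween-20. Greenhouse at 30±5 °C, 14/10 h light/dark; visual control rated 0–100 against untreated after 14 days (21 if needed).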

[7] = tested on: cocklebur; assay: as above; design: key to Soil treatment herbicidal activity, Cocklebur: 0 (no control); 100 (complete control); settings: 50 g ai/ha, scale 0 (no control) to 100 (complete control)
Summary of the method: as §2

[8] = tested on: barnyard grass; assay: Herbicidal activity test against upland field weeds (foliar treatment test); settings: Echinochloa crus-galli, 50 g ai/ha, scale 0-100
Summary of the method: (§3)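 Greenhouse-grown plants (30±5 °C, 14/10 h light/dark) foliar hand-sprayed with compound in 50% acetone, 0.1% Tween-20 at 50 or 75 g a.i./ha. Control visually scored 0 (none) to 100 (complete) versus untreated after 14 days, or 21 days if needed.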

[9] = tested on: fall panicum; assay: as above; settings: Panicum dichotomiflorum, 50 g ai/ha, scale 0-100
Summary of the method: as §3

[10] = tested on: crabgrass; assay: as above; settings: Digitaria sanguinalis, 50 g ai/ha, scale 0-100
Summary of the method: as §3

[11] = tested on: bindweed; assay: as above; settings: 50 g ai/ha, scale 0-100
Summary of the method: as §3

[12] = tested on: indian jointvetch; assay: as above; design: key to Foliar treatment herbicidal activity, Indian jointvetch: 0 (no control); 100 (complete control); settings: 50 g ai/ha, scale 0-100
Summary of the method: as §3

[13] = tested on: black nightshade; assay: as above; design: key to Foliar treatment herbicidal activity, black nightshade: 0 (no control); 100 (complete control); settings: 50 g ai/ha, scale 0-100; for pest or weed control at 50 g/ha: Solanum nigrum
Summary of the method: as §3

[14] = tested on: sorghum; assay: Herbicidal activity test against upland field weeds (soil treatment test); design: key to Soil treatment herbicidal activity, Sorghum: 0 (no control); 100 (complete control); settings: 50 g ai/ha, scale 0 (no control) to 100 (complete control); for plant injury at 50 g/ha: Sorghum
Summary of the method: as §2

[15] = 50 g ai/ha, Cotton (10 days after treatment)
[16] = 50 g ai/ha, Cotton (20 days after treatment)
[17] = 50 g ai/ha, Soybean (10 days after treatment)
[18] = 50 g ai/ha, Soybean (20 days after treatment)
[19] = 50 g ai/ha, Wheat (10 days after treatment)
[20] = 50 g ai/ha, Wheat (20 days after treatment)
[21] = 50 g ai/ha, Corn (10 days after treatment)
[22] = 50 g ai/ha, Corn (20 days after treatment)
[23] = 50 g ai/ha, Rice (10 days after treatment)
[24] = 50 g ai/ha, Rice (20 days after treatment)
[25] = 100 g ai/ha, Cotton (10 days after treatment)
[26] = 100 g ai/ha, Cotton (20 days after treatment)
[27] = 100 g ai/ha, Soybean (10 days after treatment)
[28] = 100 g ai/ha, Soybean (20 days after treatment)
[29] = 100 g ai/ha, Wheat (10 days after treatment)
[30] = 100 g ai/ha, Wheat (20 days after treatment)
[31] = 100 g ai/ha, Corn (10 days after treatment)
[32] = 100 g ai/ha, Corn (20 days after treatment)
[33] = 100 g ai/ha, Rice (10 days after treatment)
[34] = 100 g ai/ha, Rice (20 days after treatment)

Structure (SMILES)	Soil treatment phytotoxicity, Cotton [1, 15]	Soil treatment phytotoxicity, Cotton [1, 16]	Soil treatment phytotoxicity, Soybean [2, 17]	Soil treatment phytotoxicity, Soybean [2, 18]	Soil treatment phytotoxicity, Wheat [3, 19]	Soil treatment phytotoxicity, Wheat [3, 20]	Soil treatment phytotoxicity, Corn [4, 21]	Soil treatment phytotoxicity, Corn [4, 22]	Soil treatment phytotoxicity, Rice [5, 23]	Soil treatment phytotoxicity, Rice [5, 24]	Soil treatment herbicidal activity, Cocklebur [7]	pest or weed control at 50 g/ha [8] [%]	pest or weed control at 50 g/ha [9] [%]	pest or weed control at 50 g/ha [10] [%]	pest or weed control at 50 g/ha [11] [%]	plant injury at 50 g/ha [14] [%]	Soil treatment phytotoxicity, Cotton [1, 25]	Soil treatment phytotoxicity, Cotton [1, 26]	Soil treatment phytotoxicity, Soybean [2, 27]	Soil treatment phytotoxicity, Soybean [2, 28]	other results
Cn1nnc(COCc2nc(C(F)(F)F)ccc2C(=O)N(c2nnnn2C)S(C)(=O)=O)n1 [Compound No. 2-69, N-(1-methyl-1H-tetrazol-5-yl)-2-(((2-methyl-2H-tetrazol-5-yl)methoxy)methyl)-N-(methylsulfonyl)-6-(trifluoromethyl)nicotinamide]	1	5	0	0	0	1	0	0	7	8	0	70	60	70	40	70	–	–	–	–	pest or weed control at 50 g/ha [6]: 98%; pest or weed control at 50 g/ha [12]: 80%; pest or weed control at 50 g/ha [13]: 95%
CON(Cc1nnn(C)n1)c1nc(C(F)(F)F)ccc1C(=O)Nc1nnnn1C [Compound No. 2-30, 2-(methoxy((2-methyl-2H-tetrazol-5-yl)methyl)amino)-N-(1-methyl-1H-tetrazol-5-yl)-6-(trifluoromethyl)nicotinamide]	2	9	7	7	0	1	0	0	4	9	–	95	60	95	60	50	2	9	7	7	Soil treatment phytotoxicity, Wheat [3, 29]: 0; Soil treatment phytotoxicity, Wheat [3, 30]: 1; Soil treatment phytotoxicity, Corn [4, 31]: 0; Soil treatment phytotoxicity, Corn [4, 32]: 0; Soil treatment phytotoxicity, Rice [5, 33]: 6; Soil treatment phytotoxicity, Rice [5, 34]: 9; Soil treatment herbicidal activity, Fall panicum [6]: 100; pest or weed control at 50 g/ha ([7]; Xanthium strumarium): 90%; Foliar treatment herbicidal activity, Indian jointvetch [12]: 100; Foliar treatment herbicidal activity, black nightshade [13]: 100
Cn1nnnc1COCc1nc(C(F)(F)F)ccc1C(=O)Nc1nnnn1C [Compound No. 1-61, N-(1-methyl-1H-tetrazol-5-yl)-2-(((1-methyl-1H-tetrazol-5-yl)methoxy)methyl)-6-(trifluoromethyl)nicotinamide]	1	1	0	–	0	0	0	0	0	1	0	95	70	95	70	–	2	2	3	6	Soil treatment phytotoxicity, Wheat [3, 29]: 0; Soil treatment phytotoxicity, Wheat [3, 30]: 0; Soil treatment phytotoxicity, Corn [4, 31]: 0; Soil treatment phytotoxicity, Corn [4, 32]: 0; Soil treatment phytotoxicity, Rice [5, 33]: 1; Soil treatment phytotoxicity, Rice [5, 34]: 6; pest or weed control at 50 g/ha [6]: 95%; Foliar treatment herbicidal activity, Indian jointvetch [12]: 100; Foliar treatment herbicidal activity, black nightshade [13]: 100; Soil treatment herbicidal activity, Sorghum [14]: 0
Cn1nnc(COCc2nc(C(F)(F)F)ccc2C(=S)Nc2nnnn2C)n1 [Compound No. 2-106, N-(1-methyl-1H-tetrazol-5-yl)-2-(((2-methyl-2H-tetrazol-5-yl)methoxy)methyl)-6-(trifluoromethyl)pyridin-3-carbothioamide]	4	6.5	0	0	0	–	0	0	8	8	100	80	70	70	40	70	5	8	0	0	Soil treatment phytotoxicity, Wheat [3, 29]: 0; Soil treatment phytotoxicity, Wheat [3, 30]: 1; Soil treatment phytotoxicity, Corn [4, 31]: 0; Soil treatment phytotoxicity, Corn [4, 32]: 0; Soil treatment phytotoxicity, Rice [5, 33]: 9; Soil treatment phytotoxicity, Rice [5, 34]: 9; Soil treatment herbicidal activity, Fall panicum [6]: 100; pest or weed control at 50 g/ha [12]: 80%; pest or weed control at 50 g/ha [13]: 95%
